Test results: patent publication EP0429304A2, “Pyridone-carboxylic acid derivatives and their use as veterinary medicines” (SHIONOGI SEIYAKU KABUSHIKI KAISHA trading under the name of …, priority 1989, dated 1991)
Like-named read-outs stand apart in the source and are kept apart here.

Key:
[1] = tested on: Pasteurella piscicida (P.pis) No. 2; assay: In vitro sensitivity test; assay type: cell-based; settings: 25°C, 40 to 48 hours
How it was run: (§1)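 Bacteria were of animal origin. MS strains were grown by liquid dilution in Frey medium with 12 % pig-serum and 0.01 % βNAD at 37°C for 7 days. S.au was tested by agar dilution on Mueller Hinton agar, 37°C for 20 to 24 hours. P.pis was grown on 1.5 % NaCl heart infusion agar at 25°C for 40 to 48 hours.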

[2] = tested on: Streptococcus sp (Str.sp) SNO6119; assay: In vitro sensitivity test; assay type: cell-based; settings: 25°C, 40 to 48 hours
[3] = tested on: TS-resistant strain of MG; assay type: in vivo, chicken; settings: for Infectious index Left air sack + / Infectious index Left air sack ++ / Infectious index Left air sack +++ / Infectious index Left air sack - / Infectious index Right air sack + / Infectious index Right air sack ++ / Infectious index Right air sack +++ / Infectious index Right air sack -: count of fowl; for Infectious index Left air sack + / Infectious index Left air sack ++ / Infectious index Left air sack +++ / Infectious index Left air sack - / Infectious index Right air sack + / Infectious index Right air sack ++ / Infectious index Right air sack +++ / Infectious index Right air sack - / Number of fowl having air sack lesions: 10-days chicken, 1.2 x 10³ CFU/fowl
[4] = tested on: Staphylococcus aureus (S.au) 209P; assay: In vitro sensitivity test (agar dilution method); assay type: cell-based; settings: 37°C, 20 to 24 hours
How it was run: as §1

[5] = tested on: Hemophilus paragallinarum (H.pg) 221; assay: In vitro sensitivity test (agar dilution method); assay type: cell-based; settings: agar dilution, 37°C, 20 hours, 10 % CO₂
[6] = tested on: Escherichia coli (E.coli) E-17, chicken-origin strain isolated from the field; assay: In vitro sensitivity test (agar dilution method); assay type: cell-based; settings: 37°C, 20 to 24 hours
How it was run: as §1

[7] = tested on: Hemophilus pleuropneumonia (H.pp) M-1; assay: In vitro sensitivity test (agar dilution method); assay type: cell-based; settings: 37°C, 20 hours, 10 % CO₂
[8] = tested on: Salmonella typhimurium (S.typhi) 13311; assay: In vitro sensitivity test (agar dilution method); assay type: cell-based; settings: 37°C, 20 to 24 hours
[9] = tested on: Hemophilus paragallinarum (H.pg) S-1; assay: In vitro sensitivity test (agar dilution method); assay type: cell-based; settings: agar dilution, 37°C, 20 hours, 10 % CO₂
[10] = tested on: Escherichia coli (E.coli) JC-2; assay: In vitro sensitivity test (agar dilution method); assay type: cell-based; settings: 37°C, 20 to 24 hours
[11] = tested on: Bordetella bronchiseptica (B.br) ABU-1; assay: In vitro sensitivity test (agar dilution method); assay type: cell-based; settings: 37°C, 20 to 24 hours
[12] = tested on: Mycoplasma synoviae (MS) F10-2as; assay: In vitro sensitivity test (liquid dilution method); assay type: cell-based; settings: 37°C, 7 days
How it was run: as §1

[13] = tested on: Mycoplasma gallisepticum (MG) T-7-T, TS-resistant strain isolated from the field; assay: In vitro sensitivity test (liquid dilution method); assay type: cell-based; settings: 37°C, 7 days
[14] = tested on: Mycoplasma hyopneumoniae (Mh) ST-11; assay: In vitro sensitivity test (liquid dilution method); assay type: cell-based; settings: 37°C, 7 days
[15] = tested on: Mycoplasma gallisepticum (MG) S6; assay: In vitro sensitivity test (liquid dilution method); assay type: cell-based; settings: 37°C, 7 days
[16] = tested on: Mycoplasma synoviae (MS) 1853; assay: In vitro sensitivity test (liquid dilution method); assay type: cell-based; settings: 37°C, 7 days
How it was run: as §1

With `NC[C@@]12CCC[C@@H]1CN(c1cc3c(cc1F)c(=O)c(C(=O)O)cn3C1CC1)C2` (relative stereo) [I-8, 7-[(1R*,5S*)-1-aminomethyl-3-azabicyclo[3.3.0]octan-3-yl]-1-cyclopropyl-6-fluoro-1,4-dihydro-4-oxo-3-quinolinecarboxylic acid] the “In vitro Sensitivity Test P.pis No. 2” value [1] was 0.78 µg/mL, the “In vitro Sensitivity Test Str.sp SNO6119” value [2] was 0.78 µg/mL and the “Infectious index Left air sack +” value ([3]; oral 1.56 mg/kg) was 0. The “Infectious index Left air sack ++” value ([3]; oral 1.56 mg/kg) was 0, the “Infectious index Left air sack +++” value ([3]; oral 1.56 mg/kg) was 0 and the “Infectious index Left air sack -” value ([3]; oral 1.56 mg/kg) was 5. The “Infectious index Right air sack +” value ([3]; oral 1.56 mg/kg) was 3, the “Infectious index Right air sack ++” value ([3]; oral 1.56 mg/kg) was 2 and the “Infectious index Right air sack +++” value ([3]; oral 1.56 mg/kg) was 0. The “Infectious index Right air sack -” value ([3]; oral 1.56 mg/kg) was 0, the “Infectious index Left air sack +” value ([3]; oral 3.13 mg/kg) was 0 and the “Infectious index Left air sack ++” value ([3]; oral 3.13 mg/kg) was 0. The “Infectious index Left air sack +++” value ([3]; oral 3.13 mg/kg) was 0, the “Infectious index Left air sack -” value ([3]; oral 3.13 mg/kg) was 5 and the “Infectious index Right air sack +” value ([3]; oral 3.13 mg/kg) was 1. The “Infectious index Right air sack ++” value ([3]; oral 3.13 mg/kg) was 0, the “Infectious index Right air sack +++” value ([3]; oral 3.13 mg/kg) was 0 and the “Infectious index Right air sack -” value ([3]; oral 3.13 mg/kg) was 4. For the same compound, the “Infectious index Left air sack +” value ([3]; oral 6.25 mg/kg) was 0, the “Infectious index Left air sack ++” value ([3]; oral 6.25 mg/kg) was 0 and the “Infectious index Left air sack +++” value ([3]; oral 6.25 mg/kg) was 0. The “Infectious index Left air sack -” value ([3]; oral 6.25 mg/kg) was 5, the “Infectious index Right air sack +” value ([3]; oral 6.25 mg/kg) was 0 and the “Infectious index Right air sack ++” value ([3]; oral 6.25 mg/kg) was 0. For the same compound, the “Infectious index Right air sack +++” value ([3]; oral 6.25 mg/kg) was 0, the “Infectious index Right air sack -” value ([3]; oral 6.25 mg/kg) was 5 and the “antimicrobial activity compared with ERFX” value ([3]; in vivo, po) was “two times more effective than ERFX”. The “Number of fowl having air sack lesions” value ([3]; oral 1.56 mg/kg) was 5, the “Number of fowl having air sack lesions” value ([3]; oral 3.13 mg/kg) was 1 and the “Number of fowl having air sack lesions” value ([3]; oral 6.25 mg/kg) was 0. The “complete inihibition of the lesions in air sac at a concentration of” value ([3]; oral administration, MG-infected chicken) was “about 3.13 mg/kg”, the “In vitro Sensitivity Test S.au 209P” value [4] was less than 0.0125 µg/mL and the “In vitro Sensitivity Test H.pg 221” value [5] was 0.2 µg/mL. For the same compound, the “In vitro Sensitivity Test E.coli E-17” value [6] was 0.05 µg/ml, the “In vitro Sensitivity Test H.pp M-1” value [7] was 0.05 µg/mL and the “In vitro Sensitivity Test S.typhi 13311” value [8] was 0.2 µg/mL. The “In vitro Sensitivity Test H.pg S-1” value [9] was 0.2 µg/mL, the “In vitro Sensitivity Test E.coli JC-2” value [10] was 0.05 µg/mL and the “In vitro Sensitivity Test B.br ABU-1” value [11] was 1.56 µg/mL. For the same compound, the “In vitro Sensitivity Test MS F10-2as” value [12] was 0.1 µg/ml, the “In vitro Sensitivity Test MG T-7-T” value [13] was 0.00625 µg/mL and the “In vitro Sensitivity Test Mh ST-11” value [14] was less than 0.025 µg/mL. The “In vitro Sensitivity Test MG S6” value [15] was less than 0.00313 µg/mL and the “In vitro Sensitivity Test MS 1853” value [16] was 0.1 µg/mL.
